Source: ChEMBL document CHEMBL4038271, “Therapeutic potentials of baicalin and its aglycone, baicalein against inflammatory disorders” (Eur J Med Chem, 2017)
≈ marks a conversion by molar mass, not a printed value. Values belong to the compound of their own block, whether it stands above or below them.

Key:
SH-SY5Y [1] = test: Neuroprotective activity against 6-OHDA-induced cell death in human SH-SY5Y cells assessed as apoptotic cells at 0.5 ug/ml pretreated for 1 hr followed by 6-OHDA challenge measured after 24 hrs by propidium iodide/RNase staining based flow cytometry (reference value: 31.56 %); format: functional
Rattus norvegicus [2] = test: Neuroprotective activity in 6-OHDA-induced lesioned Sprague-Dawley rat assessed as increase in TH-immunopositive neurons at 200 mg/kg, ig administered once daily for 15 days measured on day 42 post 6-OHDA lesion induction by immunohistochemical analysis relative to control; format: functional
NCI-H460 = test: Cytotoxicity against human H460 cells assessed as reduction in cell viability at 50 uM after 72 hrs by trypan blue staining based assay relative to control; format: functional
Rattus norvegicus [3] = test: In vivo inhibition of P-gp in Sprague-Dawley rat assessed as increase in nimodipine AUC at 2 mg/kg, po pretreated for 30 mins followed by nimodipine addition measured after 36 hrs by HPLC method relative to nimodipine alone; format: functional
Rattus norvegicus [4] = test: In vivo inhibition of P-gp in Sprague-Dawley rat assessed as increase in cyclosporine AUC at 112 uM/kg, po administered via gastric gavage coadministered with 2.5 mg/kg cyclosporine measured after 720 to 1440 mins by monoclonal fluorescence polarization assay relative to control; format: functional; design: scale not given: the % may be the effect or the level left
DU-145 [5] = test: Anti-tumor activity against human DU145 cells xenografted in SCID mouse assessed as tumor volume at 10 mg/kg, po administered once daily for 28 days measured every seven days during compound dosing (reference value: 314 +/- 54.8 mm3); format: functional
[6] = (§1) Oral bioavailability in Sprague-Dawley rat at 224 umol/kg administered via gastric gavage; format: ADME, organism-based; settings: Sprague-Dawley, in vivo, 224 umol/kg
[7] = Apparent permeability of the compound; format: physicochemical; settings: not told
DU-145 [8] = test: Anti-tumor activity against human DU145 cells xenografted in SCID mouse assessed as tumor volume at 30 mg/kg, po administered once daily for 28 days measured every seven days during compound dosing (reference value: 314 +/- 54.8 mm3); format: functional
Rattus norvegicus [9] = test: In vivo inhibition of P-gp in Sprague-Dawley rat assessed as increase in nimodipine AUC at 8 mg/kg, po pretreated for 30 mins followed by nimodipine addition measured after 36 hrs by HPLC method relative to nimodipine alone; format: functional
DU-145 [10] = test: Anti-tumor activity against human DU145 cells xenografted in SCID mouse assessed as tumor volume at 20 mg/kg, po administered once daily for 28 days measured every seven days during compound dosing (reference value: 314 +/- 54.8 mm3); format: functional
SH-SY5Y [11] = test: Neuroprotective activity against 6-OHDA-induced cell death in human SH-SY5Y cells assessed as apoptotic cells at 5 ug/ml pretreated for 1 hr followed by 6-OHDA challenge measured after 24 hrs by propidium iodide/RNase staining based flow cytometry (reference value: 31.56 %); format: functional
Rattus norvegicus [12] = test: In vivo inhibition of P-gp in Sprague-Dawley rat assessed as increase in cyclosporine Cmax at 112 uM/kg, po administered via gastric gavage coadministered with 2.5 mg/kg cyclosporine measured after 720 to 1440 mins by monoclonal fluorescence polarization assay relative to control; format: functional; design: scale not given: the % may be the effect or the level left
Rattus norvegicus [13] = test: In vivo inhibition of CYP3A4 in Sprague-Dawley rat assessed as increase in cyclosporine Cmax at 112 uM/kg, po administered via gastric gavage coadministered with 2.5 mg/kg cyclosporine measured after 720 to 1440 mins by monoclonal fluorescence polarization assay relative to control; format: ADME, organism-based; design: scale not given: the % may be the effect or the level left
[14] = Tmax in Sprague-Dawley rat at 224 umol/kg, po administered via gastric gavage; format: ADME, organism-based; settings: in vivo
HMC1 = test: Cytotoxicity against HMC1 cells assessed as reduction in cell viability at 1.8 to 30 uM after 24 hrs by trypan blue assay relative to control; format: cell-based; settings: human, hmc1, 24 h
Cytochrome P450 3A4 = Cytochrome P450 3A4 (Homo sapiens, UniProt P08684); test: Inhibition of human CYP3A4 expressed in baculovirus infected insect cells using 7-benzyloxy-4-trifluoromethylcoumarin as substrate measured after 45 mins in presence of NADPH by spectrofluorometric method; format: ADME
Rattus norvegicus [15] = test: In vivo inhibition of CYP3A4 in Sprague-Dawley rat assessed as increase in cyclosporine AUC at 112 uM/kg, po administered via gastric gavage coadministered with 2.5 mg/kg cyclosporine measured after 720 to 1440 mins by monoclonal fluorescence polarization assay relative to control; format: ADME, organism-based; design: scale not given: the % may be the effect or the level left
[16] = Solubility of the compound in water; format: physicochemical; settings: buffer
Mus musculus [17] = test: Anti-inflammatory activity in proteolipid protein 139-151/complete freund's adjuvant-induced SJL/J mouse autoimmune encephalomyelitis model assessed as reduction in clinical score at 5 to 10 mg/kg, ip administered once daily pretreated for 1 day followed by immunization and subsequent treatment for 3 days measured up to 6 days; format: functional
Mus musculus [18] = test: Anti-inflammatory activity in adjuvant-induced C57BL/6 mouse arthritis model assessed as reduction in ankle swelling by measuring splenic Th17 cell population expansion at 100 mg/kg, ip administered once daily for 1 week starting from 14 days post-immunization measured by flow cytometry relative to control; format: functional; design: scale not given: the % may be the effect or the level left
Rattus norvegicus [19] = test: In vivo inhibition of P-gp in Sprague-Dawley rat assessed as increase in cyclosporine Cmax at 112 uM/kg, po administered via gastric gavage coadministered with 2.5 mg/kg cyclosporine measured after 540 mins by monoclonal fluorescence polarization assay relative to control; format: functional; design: scale not given: the % may be the effect or the level left
Rattus norvegicus [20] = test: In vivo inhibition of CYP3A4 in Sprague-Dawley rat assessed as increase in cyclosporine AUC at 112 uM/kg, po administered via gastric gavage coadministered with 2.5 mg/kg cyclosporine measured after 540 mins by monoclonal fluorescence polarization assay relative to control; format: ADME, organism-based; design: scale not given: the % may be the effect or the level left; settings: 9 h
Rattus norvegicus [21] = test: as §1; format: ADME, organism-based; settings: in vivo
Rattus norvegicus [22] = test: In vivo inhibition of P-gp in Sprague-Dawley rat assessed as increase in cyclosporine AUC at 112 uM/kg, po administered via gastric gavage coadministered with 2.5 mg/kg cyclosporine measured after 540 mins by monoclonal fluorescence polarization assay relative to control; format: functional; design: scale not given: the % may be the effect or the level left
Mus musculus [23] = test: Antiinflammatory activity in dextran sodium sulphate-induced C57BL/6 mouse colitis model assessed as disease activity index at 100 mg/kg, ig administered once daily pretreated for 3 days followed by DSS challenge and subsequent treatment for 7 days measured 24 hrs post last dose (reference value: 5.67 +/- 1.03); format: functional
Rattus norvegicus [24] = test: In vivo inhibition of CYP1A2 in Sprague-Dawley rat assessed as increase in unbound phenacetin level in plasma at 450 mg/kg, iv coadministered with phenacetin by UV-HPLC method relative to phenacetin alone; format: ADME, organism-based
Rattus norvegicus [25] = test: Anti-hyperplasia activity in carotid arterial balloon-injury-induced Sprague-Dawley rat neointimal hyperplasia model assessed as reduction in thickness of left carotid artery by measuring intima to media thickness ratio at 70 mg/kg administered once daily via gastric gavage from 3 days before balloon injury to 28 days after the injury measured post last dose by haematoxylin/eosin staining based assay relative to control; format: functional; design: scale not given: the % may be the effect or the level left
Rattus norvegicus [26] = test: In vivo inhibition of CYP3A4 in Sprague-Dawley rat assessed as increase in cyclosporine Cmax at 112 uM/kg, po administered via gastric gavage coadministered with 2.5 mg/kg cyclosporine measured after 540 mins by monoclonal fluorescence polarization assay relative to control; format: ADME, organism-based; design: scale not given: the % may be the effect or the level left; settings: 9 h

Chain of Cytochrome P450 3A4 (P08684 whole entry): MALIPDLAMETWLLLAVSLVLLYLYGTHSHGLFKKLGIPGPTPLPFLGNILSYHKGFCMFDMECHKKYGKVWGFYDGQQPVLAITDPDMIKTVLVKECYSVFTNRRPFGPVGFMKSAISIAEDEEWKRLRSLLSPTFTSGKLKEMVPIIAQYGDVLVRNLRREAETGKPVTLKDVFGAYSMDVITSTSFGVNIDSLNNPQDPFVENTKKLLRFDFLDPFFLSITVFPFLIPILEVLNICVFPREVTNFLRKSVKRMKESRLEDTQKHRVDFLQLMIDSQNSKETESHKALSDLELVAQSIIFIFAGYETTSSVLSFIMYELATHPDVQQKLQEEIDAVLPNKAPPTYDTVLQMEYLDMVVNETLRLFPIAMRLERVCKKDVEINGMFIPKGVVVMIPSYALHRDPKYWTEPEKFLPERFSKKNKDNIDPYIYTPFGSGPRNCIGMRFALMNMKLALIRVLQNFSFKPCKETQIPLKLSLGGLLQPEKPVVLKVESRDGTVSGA

SMILES: O=c1cc(-c2ccccc2)oc2cc(O)c(O)c(O)c12 [BAICALEIN]
Activity (SH-SY5Y [1]): 18.9% | Activity (Rattus norvegicus [2]): 265.52% | Activity (NCI-H460): 42% | fold change (FC) (Rattus norvegicus [3]): 1.4 | Activity (Rattus norvegicus [4]): 150.2% | Activity (DU-145 [5]): 144.5 mm3 | bioavailability [6]: 0% | Papp [7]: 17 ×10⁻⁶ cm/s | Activity (DU-145 [8]): 183 mm3 | fold change (FC) (Rattus norvegicus [9]): 1.6 | Activity (DU-145 [10]): 114.2 mm3 | Activity (SH-SY5Y [11]): 21.61% | Activity (Rattus norvegicus [12]): 87.5% | Activity (Rattus norvegicus [13]): 87.5% | Tmax [14]: 0.167 h | Activity (HMC1): 93 to 95% | IC50 (Cytochrome P450 3A4): 9.2 µM | Activity (Rattus norvegicus [15]): 150.2%

solubility [16]: 52 µg/mL (≈ 116 µM) | Activity (Rattus norvegicus [20]): 685.3% | F (Rattus norvegicus [21]): 62% | Papp [7]: 0.037 ×10⁻⁶ cm/s | Tmax [14]: 6.6 h | fold change (FC) (Rattus norvegicus [24]): 2 | Activity (Rattus norvegicus [26]): 408.1%
SMILES: O=C(O)[C@H]1O[C@@H](Oc2cc3oc(-c4ccccc4)cc(=O)c3c(O)c2O)[C@H](O)[C@@H](O)[C@@H]1O [BAICALIN]
Activity (Mus musculus [17]): 2.2 | Activity (Mus musculus [18]): 40% | Activity (Rattus norvegicus [19]): 408.1% | Activity (Rattus norvegicus [22]): 685.3% | Activity_index (Mus musculus [23]): 3.03 | Activity (Rattus norvegicus [25]): 55%
